Reference: paper PMC7932537, “Quantitative profiling of protease specificity” (PLoS Computational Biology, 2021)

What follows are substances tested on MMP-2 (assay: Substrate phage display with NGS: relative probability (RP) of P3-P1' tetramer clusters). Conditions: MMP2 - no binning; average relative probability (RP) of the P3-P1' tetramer; redundant tetramers have been averaged out.
Type: biochemical, human

Point of comparison: ALPM, avg_RP 15.3537. Against it:
- PHCL — lower, 0.499
- INFL — lower, 7.787
- PRWI — higher, 30.8879
- PASM — higher, 32.7286
- HRSI — lower, 0.1819
- PMNL — higher, 32.5586
- VWRL — lower, 0.9525
- AFSL — lower, 10.3321
- ALDM — lower, 0.2655
- PMSL — higher, 32.4868
- AKPL — higher, 20.8275
- YRAL — lower, 8.2547
- YSHL — lower, 14.1084
- HLNI — lower, 0.0853
- VDQL — lower, 0.0432
- TMWL — lower, 5.1973
- VMYL — lower, 5.0318
- LMAL — higher, 15.4189
- IASL — higher, 32.8949
- PQAV — higher, 23.1021
- AKHL — lower, 9.4662
- VYAL — higher, 19.6906
- GLHL — lower, 0.1267
- YRFM — lower, 0
- YAHM — lower, 12.8446
- AGRL — lower, 3.4801
- IRWL — higher, 25.5858
- AQHI — lower, 7.3783
- TMAL — lower, 0.4939
- YQSL — higher, 16.6669
- LFHL — lower, 2.7376
- YAHY — lower, 10.8158
- AQMI — lower, 2.3525
- VKFL — lower, 9.5539
- GHRL — lower, 0.0505
- PAYL — higher, 33.0829
- MQNL — higher, 23.8708
- VRNL — higher, 29.2567
- GMAL — lower, 1.3132
- PMGM — higher, 28.512
- LLHL — higher, 16.5808
- PQHL — higher, 31.2196
- SASL — higher, 17.7881
- VMKL — lower, 0.3599
- PSRI — higher, 23.675

Same assay, conditions: MMP2 - no binning; average relative probability of the P3-P1' tetramer; redundant tetramers have been averaged out

Point of comparison: YMGL, avg_RP 0.0982. Against it:
- PLPQ — higher, 24.381
- IAHL — higher, 32.9345
- MSSL — higher, 27.4466
- ARSM — higher, 12.2991
- VMNL — higher, 18.6016
- VYAW — higher, 0.6193
- PYTL — higher, 16.827
- ARAW — higher, 17.4628
- FRSM — higher, 5.3885
- LYHL — higher, 4.5289
- WLAL — higher, 1.2175
- VFSM — higher, 2.2653
- YSNL — higher, 25.2832
- AISM — higher, 11.4166
- VDYL — higher, 1.426
- LGCL — higher, 12.7261
- LRHL — higher, 22.7972
- TLHL — higher, 2.4714
- AYNM — higher, 10.8408
- ARFL — higher, 8.5771
- YGHL — higher, 11.3746
- VWNI — higher, 4.0144
- VELL — lower, 0
- VYSL — higher, 16.838
- MASL [P3-P1' tetramer cluster] — higher, 31.6834
- ISFM — higher, 23.3965
- VHQM — lower, 0
- AWGL — higher, 17.7408
- PLMM — higher, 20.5706
- SLPL — higher, 8.6373
- MLHM — higher, 4.7134
- VWLL — higher, 0.5351
- YMNI — lower, 0
- VFNL — higher, 14.497
- PMRL — higher, 20.4124
- VHSF — lower, 0.0855
- SGSL — higher, 7.2251
- ARSL — higher, 17.186
- ASHM — higher, 12.3873
- WESL — higher, 0.6249
- PSNM — higher, 32.3748
- LYGL — higher, 17.2472
- AYNL — higher, 20.8713
- GWAL — lower, 0.0916
- HQNL — higher, 17.7487
- QMSL — higher, 0.2763
- YYGL — higher, 0.142
- ALAL — higher, 22.1184
- PVGL — higher, 35.2016
- VWAL — higher, 12.7502
- MMSL — higher, 6.1978
- PMLL — higher, 14.7282
- LDLL — lower, 0.0715
- IAYL — higher, 27.9862
- VEYL — higher, 5.3014
- SMNL — higher, 2.1645
- PAWM — higher, 34.3571
- LAKL — higher, 21.2737
- PHWL — higher, 28.844
- WAHL — higher, 7.453
- PASL [P3-P1' tetramer cluster] — higher, 36.4285
- AQNL — higher, 19.4627
- YLPM — higher, 0.4306
- PQSL — higher, 33.5105
- SGEL — higher, 0.1149
- YRGL — higher, 5.4447
- FSQL — higher, 9.0646
- WGNM — higher, 3.7232
- YGNM — higher, 13.8836
- VRML — higher, 15.9125
- AQSL — higher, 18.365
- LGMM — higher, 22.231
- IYNL — higher, 11.935
- LWYL — higher, 0.6796
- LWSL — higher, 8.3838
- ARWL — higher, 19.0362
- ARML — higher, 2.9901
- TLNL — higher, 2.7643
- AVAL — higher, 27.4369
- AHSL — higher, 21.0212
- SGRL — higher, 0.7262
- SGML — higher, 1.3118
- YAYI — higher, 1.7086
- HYSL — higher, 0.1694
- LKHL — higher, 11.1441
- AFNL — higher, 16.2959
- YGEL — higher, 16.6627
- AGAL — higher, 19.769
- VRSL — higher, 12.3051
- PDFL — higher, 1.02
- PEML — higher, 16.0599
- AWYL — lower, 0.0964
- WSNL — higher, 17.9326
- LRNI — higher, 19.0698
- PRAW — higher, 34.1791
- WGNL — higher, 14.7295
- INML — higher, 5.8285
- YFSM — lower, 0.0661

Same assay, conditions: MMP2 - no binning; average relative probability of the tetramer; redundant tetramers averaged out

Point of comparison: PRQV, avg_RP 4.0665. Against it:
- IGEI — higher, 19.2988
- VEML — lower, 2.1238
- PLGM — higher, 34.1118
- PRVL — higher, 13.9079
- FSHL — higher, 16.5216
- VRWY — higher, 17.3102
- AWSL — higher, 7.006
- VRAL — higher, 30.4312
- TFHL — lower, 0.1298
- PLKV — lower, 0.2165
- PRNV — higher, 26.6015
- LNST — lower, 0.4784
- ARGL — higher, 25.9476
- YQGL — higher, 4.3322
- PLKI — higher, 14.0985
- PEPL — higher, 26.8179
- PEFL — higher, 12.0159
- VLSL — higher, 10.8506
- GRAL — higher, 7.9443
- SYNL — higher, 6.0933
- HAHL — higher, 20.0775
- PYNL — higher, 30.8263
- VEAL — higher, 10.756
- PLGI — higher, 33.936
- PMGL — higher, 34.7865
- MGHL — higher, 26.7019
- SRGL — higher, 6.1644
- PLNS — higher, 18.9358
- AYHL — higher, 15.3364
- PKWI — higher, 22.5059
- VWPL — higher, 5.2943
- PHYL — higher, 24.5149
- AIHL — higher, 13.4941
- SGAL — higher, 13.4712
- PTAL — higher, 32.8941
- PQRM — higher, 19.3209
- ASHL — higher, 19.8208
- WFAL — lower, 0
- VRAV — higher, 10.114
- AMGL — higher, 23.7576
- VAAV — higher, 19.031
- PVHM — higher, 25.8779
- PVHY — higher, 23.3589
- PHHL — higher, 27.4742
- GAHL — higher, 8.4636
- VGAL — higher, 32.8382
- PKNQ — higher, 13.2723
- VRKL — lower, 0
- PLVY — lower, 0.5489
- MAWL — higher, 31.5866
- ARAM — higher, 25.2992
- PRPV — higher, 29.4989
- PMHL — higher, 30.095
- PIHM — higher, 18.8886
- PRSM — higher, 32.6673
- WQGL — higher, 12.939
- AHGI — higher, 8.8809
- WFNL — lower, 0
- LSSL — higher, 24.2822
- VRLL — lower, 4.002
- VFSI — lower, 0.2237
- ATAL — higher, 22.9481
- PMNV — higher, 12.9651
- YMSL — lower, 0.0725
- FGAL — higher, 25.0961
- PLGL — higher, 35.3536
- PRSY — higher, 30.3745
- VWHI — lower, 1.9312
- YAHL — higher, 18.7061
- PWGM — higher, 25.1614
- PQWI — higher, 28.1021
- PNYL — higher, 17.2533
- AWNL — higher, 14.0049
- MGRL — higher, 18.6873
- YGNL — higher, 24.0019
- PRYM — higher, 28.0367
- PLLL — higher, 15.2696
- PVFL — higher, 21.7568
- PRSH — higher, 18.6153
- WSSL — higher, 16.6561
- PSAQ — higher, 28.0379
- PKGM — higher, 31.666
- PRGM — higher, 34.3819
- GRNL — higher, 8.8117
- PKWL — higher, 29.287
- VYWM — higher, 12.492
- PNPL — higher, 23.6266
- PNAF — higher, 16.8865
- MSYL — higher, 18.2293
- QQGL — higher, 6.4014

Same assay, conditions: MMP2; RP of matching P3-P1' tetramer; common set of MMP2-9 selectome; RP above KL threshold

In the case of AGSL, the “relative probability (RP) (acc.to MMP2)” value is reported as 14.97.

Same assay, conditions: P3-P1' tetramer matching the MS detected MMP2 cleavage sequence; RP_above_4.5

AGSL was tested, and the “relative probability (RP) of matching tetramer” value was 14.97.

Same assay, conditions: tetramer annotation of MMP-2 cleavage sites in physiologic substrates from MEROPS

Point of comparison: RIIG, “relative probability (RP)” value 0.08. Against it:
- FSRI — higher, 0.35

Same assay, conditions: tetramer clusters unique to the MMP-2 selectome, MMP-2 RP

Point of comparison: IGQL [P3-P1' tetramer cluster], relative_probability 30.24. Against it:
- MGNL [P3-P1' tetramer cluster] — higher, 31.00
- MASL [P3-P1' tetramer cluster] — higher, 31.68
- MANL [P3-P1' tetramer cluster] — higher, 32.42
- LGAM [P3-P1' tetramer cluster] — lower, 29.74
- IAAI [P3-P1' tetramer cluster] — lower, 29.40
- HANL [P3-P1' tetramer cluster] — higher, 30.86
- MSWM [P3-P1' tetramer cluster] — lower, 29.68
- YAAL [P3-P1' tetramer cluster] — higher, 30.40
- LANW [P3-P1' tetramer cluster] — lower, 29.93

Same assay, conditions: tetramer probability in MMP2 set / naive library; 200 nM protease, 2 h, 37°C

In the case of PASL [P3-P1' tetramer cluster], the “relative probability (RP)” value is reported as 36.4285.

Same assay, conditions: tetramer projected onto MMP-2 cleavage sites determined by Prudova et al. (2010)

For PASL [P3-P1' tetramer cluster], the “relative probability (RP)” value was 36.43.
